In PMC7281419, “New Conjugates of Polyhydroxysteroids with Long-Chain Fatty Acids from the Deep-Water Far Eastern Starfish Ceramaster patagonicus and Their Anticancer Activity” (Marine Drugs, 2020):
Read-outs that look alike come from different tables or passages of the source.

Tests used:
[1] = tested on: herpes simplex virus type 1 (HSV-1); set-up: method as in PMID 20523000; conditions: in vitro; cited from earlier work
[2] = tested on: human liver carcinoma HepG2 cells; set-up: method as in PMID 20523000; conditions: in vitro; cited from earlier work
[3] = MTS cell viability assay (cytotoxic / cytostatic activity); assay type: cell-based, mouse; conditions: mouse, JB6 Cl41 cells (normal epidermal), 100 µM, 24 h incubation, read-out: suppression of cell viability
Description: (§1) At the first stage of biological activity evaluation, the cytotoxicity of compounds 1–4 against mouse normal epidermal JB6 Cl41 cells, human breast cancer MDA-MB-231 cells, and colorectal carcinoma HCT 116 cells was determined by MTS assay, which is based on the cleavage of (3-(4,5-dimethylthiazol-2-yl)-5-(3-carboxymethoxyphenyl)-2-(4-sulfophenyl)-2H-tetrazolium) (MTS reagent) into a formazan product soluble in tissue culture medium.
(§2) That is why the cytostatic activity of compounds 1–4 was determined against JB6 Cl41, MDA-MB-231, and HCT 116 cell lines for 24, 48, and 72 h. […] The cytostatic effect of 2 was more prominent in colorectal carcinoma HCT 116 cells.
(§3) Figure 3 The cytostatic activity of compounds 1–4 against normal epidermal JB6 Cl41 cells, breast cancer MDA-MB-231 cells, and colorectal carcinoma HCT 116 cells. (A) JB6 Cl41, (B) MDA-MB-231, or (C) HCT 116 cells were treated with compounds 1–4 at concentrations of 1–100 µM for 24, 48, and 72 h. Cell viability was estimated using the MTS assay. Data are represented as the mean ± SD as determined from triplicate experiments.
(§4) To determine the cytotoxicity of compounds 1–4, JB6 Cl41, MDA-MB-231, and HCT 116 cells (1.0 × 10^4) were seeded in 200 µL of complete MEM/5% FBS, DMEM/10% FBS, and McCoy’s 5A/10% FBS medium, respectively, and incubated for 24 h at 37 °C in 5% CO2 incubator. The attached cells were incubated with fresh medium containing various concentrations of 1–4 (0–100 µM) or equivalent volume of DMSO (control) for additional 24 h. Subsequently, the cells were incubated with 15 µL MTS reagent for 3 h, and the absorbance of each well was measured at 490/630 nm using Power Wave XS microplate reader (BioTek, Winooski, VT, USA). All experimental conditions were assessed in triplicate.
(§5) To determine the effect of compounds 1–4 on cell proliferation, the tested cell lines (8 × 10^3 cells/200 µL) were treated with tested compounds at concentrations of 1, 10, 50, and 100 µM or equivalent volume of DMSO (control) and incubated for additional 24, 48, and 72 h at 37 °C in 5% CO2. MTS reagent (20 µL) was added to each well, and the cells were incubated for additional 3 h in 5% CO2 incubator. Absorbance was measured at 490/630 nm by microplate reader. All experimental conditions were assessed in triplicate.

JB6 Cl41 cells = test: as above; assay type: cell-based, mouse; conditions: Mus musculus, 72 h incubation, read-out: concentration that caused 50% inhibition of growth (IC50)
Description: as §1, §2, §3, §4, §5

[4] = as above; assay type: cell-based, human; conditions: human, 100 µM, 24 h incubation, read-out: suppression of cell viability
Description: as §1, §2, §3, §4, §5

HCT 116 cells [5] = test: as above; assay type: cell-based, human; conditions: for IC50: Homo sapiens, 72 h incubation, read-out: concentration that caused 50% inhibition of growth (IC50)
Description: as §1, §2, §3, §4, §5

MDA-MB-231 cells [6] = test: as above; assay type: cell-based, human; conditions: for IC50: Homo sapiens, 72 h incubation, read-out: concentration that caused 50% inhibition of growth (IC50)
Description: as §1, §2, §3, §4, §5

HCT 116 cells [7] = test: Soft agar colony formation assay; assay type: cell-based; conditions: Homo sapiens, 336 h, 14 days
Description: (§6) The formation of colonies is one of the most stringent characteristics for malignant transformation in cells. In the present study the soft agar assay was used to investigate the effect of compounds 1–4 on capability of cancer cells to form colonies.
(§7) Figure 4 The effect of compounds 1–4 on colony formation in human cancer cells. MDA-MB-231 (A) or HCT 116 cells (B) (2.4 × 10^4) were treated with or without investigated compounds (20 µM) and applied onto 0.3% Basal Medium Eagle (BME) agar containing 10% FBS, 2 mM L-glutamine, and 25 µg/mL gentamicin. After 14 days of incubation, the number of colonies was evaluated under a microscope with the aid of the ImageJ software program. Results are expressed as the mean ± standard deviation (SD). The asterisks (** p < 0.01, *** p < 0.001) indicate a significant decrease in colony number of cancer cells treated by compounds compared with control.
(§8) To estimate the effects of 1–4 on colony formation (phenotype expression), MDA-MB-231 and HCT 116 cells (2.4 × 10^4 cells/200 µL) were treated equivalent volume of DMSO (control) or with compounds 1–4 (20 µM) in 1 mL of 0.3% Basal Medium Eagle (BME) agar containing 10% FBS, 2 mM L-glutamine, and 25 µg/mL gentamicin. The cultures were maintained in a 37 °C, 5% CO2 incubator for 14 days, and the cell colonies were scored using a Motic AE 20 microscope (XiangAn, Xiamen, China) and ImageJ software bundled with 64-bit Java 1.8.0_112 (NIH, Bethesda, MD, USA).

MDA-MB-231 cells [8] = test: Soft agar colony formation assay; assay type: cell-based; conditions: Homo sapiens, 336 h, 14 days
Description: as §6, §7, §8

HCT 116 cells [9] = test: Wound healing (cell migration) assay; assay type: cell-based, human; conditions: 20 µM, 48 h
From the text: (§9) The metastasis process is proven to be the leading cause of cancer-related death. Metastasis is a multistep process that includes migration and invasion of cancer cells, hallmarks of malignancy. Therefore, we investigated the ability of compounds 1–4 to inhibit the migration of breast cancer MDA-MB-231 cells and colorectal carcinoma HCT 116 cells with high metastatic potential. […] Compounds 1, 3, and 4 prevented HCT 116 cell migration by 36%, 30%, and 24%, respectively (Figure 5). […]
(§10) Figure 5 The effect of compounds 1–4 on migration of human cancer cells. MDA-MB-231 (A,B) and HCT 116 (C,D) cells migration distance was estimated by measuring the width of the wound and expressed as a percentage of each control for the mean of wound closure area. All experiments were repeated at least three times in each group (n = 18 for control and each compound, n—quantity of photos). The magnification of representative photos is ×10. Results are expressed as the mean ± standard deviation (SD). The asterisks (* p < 0.05, ** p < 0.01, *** p < 0.001) indicate a significant decrease in migration of cells treated with compounds compared with the control.
(§11) MDA-MB-231 and HCT 116 cells (3 × 10^5 cells/mL) were seeded into six-well plates and grown to 80% confluence for 24 h. After removing the culture medium, the cells’ monolayer was scraped with a 200 µL sterile pipette tip to create a straight scratch. Then, MDA-MB-231 and HCT 116 cells were treated with equivalent volume of DMSO (control) or 1–4 at concentration of 20 µM and incubated for 48 h. All experiments were conducted in triplicate for each group. For the image analysis, cell migration into the wound area was photographed at the stages of 0 and 48 h using a Motic AE 20 microscope and ImageJ software. The cell migration distance was estimated by measuring the width of the wound and expressed as a percentage of each control for the mean wound closure area.

MDA-MB-231 cells [10] = test: Wound healing (cell migration) assay; assay type: cell-based, human; conditions: 20 µM, 48 h
From the text: as §9, §10, §11

human lung cancer A549 = tested on: human lung cancer A549; set-up: method as in PMID 15104487; conditions: cited from earlier work
melanoma SK-MEL-2 = tested on: melanoma SK-MEL-2; set-up: method as in PMID 15104487; conditions: SK-MEL-2 cells; cited from earlier work
ovarian cancer SK-OV-3 = tested on: ovarian cancer SK-OV-3; set-up: method as in PMID 15104487; conditions: SK-OV-3 cells; cited from earlier work
CNS cancer XF498 = tested on: CNS cancer XF498; set-up: method as in PMID 15104487; conditions: cited from earlier work
colon cancer HCT15 = tested on: colon cancer HCT15; set-up: method as in PMID 15104487; conditions: cited from earlier work
[11] = HCT 116 cells (colorectal carcinoma)
[12] = MDA-MB-231 cells (breast cancer)

Row | SMILES | inhibitory activity against HSV-1 [1] | inhibitory activity against HepG2 cells [2] | cytotoxicity at 24 h, 100 µM [3] | IC50 (JB6 Cl41 cells) | cytotoxicity at 24 h, 100 µM [4, 11] | cytotoxicity at 24 h, 100 µM [4, 12] | IC50 (HCT 116 cells [5]) | IC50 (MDA-MB-231 cells [6]) | inhibition at 20 µM (HCT 116 cells [7]) | inhibition at 20 µM (MDA-MB-231 cells [8]) | prevention of cell migration (HCT 116 cells [9]) | prevention of cell migration compared to control (MDA-MB-231 cells [10]) | inhibitory activity against cell migration (in words) (MDA-MB-231 cells [10]) | toxicity against cell line (HCT 116 cells [5]; three days of treatment) | toxicity against cell line (MDA-MB-231 cells [6]; three days of treatment) | effective dose that inhibited viability of 50% cells (ED50) (human lung cancer A549) | effective dose that inhibited viability of 50% cells (ED50) (melanoma SK-MEL-2) | effective dose that inhibited viability of 50% cells (ED50) (ovarian cancer SK-OV-3) | effective dose that inhibited viability of 50% cells (ED50) (CNS cancer XF498) | effective dose that inhibited viability of 50% cells (ED50) (colon cancer HCT15)
1 | CCCCC/C=C\CCCCCCCCCCCCC(=O)OC[C@@H](C)CCC[C@@H](C)[C@H]1[C@@H](O)[C@H](O)[C@@H]2[C@]1(C)CC[C@@H]1[C@@]3(C)CC[C@H](O)C[C@@H]3[C@@H](O)[C@@H](O)[C@]12O [(25S)-5α-cholestane-3β,6α,7α,8,15α,16β-hexaol-26-yl 14′Z-eicosenoate] | did not possess inhibitory activity | did not possess inhibitory activity | – | – | – | – | – | – | – | – | – | – | – | – | – | – | – | – | – | –
2 | CCCCCCC=CCCCCC=CCCCC(=O)OCC(C)CCCC(C)C1C(O)C(O)C2C3CC(O)C4CC(O)CCC4(C)C3CCC12C [Compound 1, (25S)-5α-cholestane-3β,6β,15α,16β-tetraol-26-yl 5′Z,11′Z-octadecadienoate] | – | – | < 15% | 81 µM | < 15% | < 15% | 73 µM | 74 µM | 20% | 17% | 36% | 42% | – | – | – | – | – | – | – | –
3 | CCCCCCC=CCCCCCCCCCC(=O)OCC(C)CCCC(C)C1C(O)C(O)C2C3CC(O)C4CC(O)CCC4(C)C3CCC12C [Compound 2, (25S)-5α-cholestane-3β,6β,15α,16β-tetraol-26-yl 11′Z-octadecenoate] | – | – | < 15% | 40 µM | < 15% | < 15% | 31 µM | 33 µM | 27% | 26% | 73% | 50% | – | – | – | – | – | – | – | –
4 | CCCCCCCCC=CCCCCC=CCCCC(=O)OCC(C)CCCC(C)C1C(O)C(O)C2C3CC(O)C4CC(O)CCC4(C)C3CCC12C [Compound 3, (25S)-5α-cholestane-3β,6β,15α,16β-tetraol-26-yl 5′Z,11′Z-eicosadienoate] | – | – | < 15% | 79 µM | < 15% | < 15% | 71 µM | 73 µM | 18% | 15% | 30% | – | moderate inhibitory activity | – | – | – | – | – | – | –
5 | CCCCCCCCCCCCC=CCCCCCC(=O)OCC(C)CCCC(C)C1C(O)C(O)C2C3CC(O)C4CC(O)CCC4(C)C3CCC12C [Compound 4, (25S)-5α-cholestane-3β,6β,15α,16β-tetraol-26-yl 7′Z-eicosenoate] | – | – | < 15% | – | < 15% | < 15% | – | – | 16% | 10% | 24% | – | moderate inhibitory activity | non-toxic | non-toxic | – | – | – | – | –
6 | CC(C)[C@H](/C=C/[C@@H](C)[C@H]1C[C@@H](O)[C@H]2[C@@H]3C[C@H](O)[C@H]4C[C@@H](O)CC[C@]4(C)[C@H]3CC[C@@]21C)CO [certonardosterol D2] | – | – | – | – | – | – | – | – | – | – | – | – | – | – | – | 0.15 µg/mL | 0.09 µg/mL | 0.08 µg/mL | 0.07 µg/mL | 0.01 µg/mL
